Test results taken from ChEMBL document CHEMBL5325437, “Shifting the selectivity of pyrido[2,3-d]pyrimidin-7(8H)-one inhibitors towards the salt-inducible kinase (SIK) subfamily” (Eur J Med Chem, 2023).
Active and inactive are the calls of the source. The rule behind the calls is not given here.

Legend:
[1] = molecular target: Ephrin type-A receptor 3 (Homo sapiens, UniProt P29320); test: Inhibition of full length NanoLuc fused EPHA3 (unknown origin) transfected in HEK293T cells using NanoBRET NanoGlo substrate incubated for 2 hrs in presence of tracer by NanoBRET assay; type: cell-based
[2] = system: SK-OV-3; test: Induction of cell cycle arrest in human SK-OV-3 cells assessed as accumulation of cells at interphase at 5 uM incubated for 24 hrs by flow cytometry; type: functional
[3] = molecular target: T1, Serine/threonine-protein kinase 4 (Homo sapiens) (UniProt Q13043); test: Binding affinity to recombinant MST1 (unknown origin) assessed as stabilization by measuring change in melting temperature at 10 uM by SYPRO orange dye based differential scanning fluorimetry assay
T1 sequence (whole entry): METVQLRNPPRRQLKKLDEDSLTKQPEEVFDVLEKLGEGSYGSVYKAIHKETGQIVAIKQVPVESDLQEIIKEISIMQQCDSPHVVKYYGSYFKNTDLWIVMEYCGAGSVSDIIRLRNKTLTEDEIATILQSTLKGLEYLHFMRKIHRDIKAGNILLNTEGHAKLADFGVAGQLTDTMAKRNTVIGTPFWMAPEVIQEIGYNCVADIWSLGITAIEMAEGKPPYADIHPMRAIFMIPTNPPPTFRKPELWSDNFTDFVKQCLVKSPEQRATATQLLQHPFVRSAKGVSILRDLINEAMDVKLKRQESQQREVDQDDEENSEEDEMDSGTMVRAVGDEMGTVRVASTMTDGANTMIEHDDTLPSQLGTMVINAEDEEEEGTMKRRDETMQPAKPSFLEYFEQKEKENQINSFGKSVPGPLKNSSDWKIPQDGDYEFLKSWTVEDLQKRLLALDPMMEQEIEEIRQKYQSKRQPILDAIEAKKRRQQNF

[4] = molecular target: Serine/threonine-protein kinase 24 (Homo sapiens) (UniProt Q9Y6E0); test: Binding affinity to recombinant MST3 (unknown origin) assessed as stabilization by measuring change in melting temperature at 10 uM by SYPRO orange dye based differential scanning fluorimetry assay
Sequence of Serine/threonine-protein kinase 24 (Homo sapiens) (Q9Y6E0 whole entry, looked up): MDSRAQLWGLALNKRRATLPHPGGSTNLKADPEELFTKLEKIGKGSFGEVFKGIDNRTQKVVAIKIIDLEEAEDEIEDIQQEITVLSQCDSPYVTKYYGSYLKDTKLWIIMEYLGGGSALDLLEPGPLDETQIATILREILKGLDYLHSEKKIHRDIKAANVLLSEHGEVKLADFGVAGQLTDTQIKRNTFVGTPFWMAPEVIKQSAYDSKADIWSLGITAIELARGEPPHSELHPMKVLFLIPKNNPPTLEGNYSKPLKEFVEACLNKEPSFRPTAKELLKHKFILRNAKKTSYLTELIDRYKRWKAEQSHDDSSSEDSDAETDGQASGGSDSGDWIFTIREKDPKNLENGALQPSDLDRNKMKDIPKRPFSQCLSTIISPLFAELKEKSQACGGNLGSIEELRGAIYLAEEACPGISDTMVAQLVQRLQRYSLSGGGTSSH

[5] = system: HCT-116; test: Cytotoxicity against human HCT-116 cells assessed as decrease in cell viability at 10 uM incubated for 24 hrs by Hoechst-33342 staining high-content imaging analysis; type: toxicity, cell-based; conditions: hct-116, 24 h
[6] = molecular target: Tyrosine-protein kinase ABL1 (Homo sapiens, UniProt P00519); test: Inhibition of full length NanoLuc fused ABL1 (unknown origin) transfected in HEK293T cells using NanoBRET NanoGlo substrate incubated for 2 hrs in presence of tracer by NanoBRET assay; type: cell-based
[7] = molecular target: T2, Ephrin type-A receptor 4 (Homo sapiens, UniProt P54764); test: Binding affinity to recombinant EPHA4 (unknown origin) assessed as stabilization by measuring change in melting temperature at 10 uM by SYPRO orange dye based differential scanning fluorimetry assay
T2 sequence (P54764 whole entry): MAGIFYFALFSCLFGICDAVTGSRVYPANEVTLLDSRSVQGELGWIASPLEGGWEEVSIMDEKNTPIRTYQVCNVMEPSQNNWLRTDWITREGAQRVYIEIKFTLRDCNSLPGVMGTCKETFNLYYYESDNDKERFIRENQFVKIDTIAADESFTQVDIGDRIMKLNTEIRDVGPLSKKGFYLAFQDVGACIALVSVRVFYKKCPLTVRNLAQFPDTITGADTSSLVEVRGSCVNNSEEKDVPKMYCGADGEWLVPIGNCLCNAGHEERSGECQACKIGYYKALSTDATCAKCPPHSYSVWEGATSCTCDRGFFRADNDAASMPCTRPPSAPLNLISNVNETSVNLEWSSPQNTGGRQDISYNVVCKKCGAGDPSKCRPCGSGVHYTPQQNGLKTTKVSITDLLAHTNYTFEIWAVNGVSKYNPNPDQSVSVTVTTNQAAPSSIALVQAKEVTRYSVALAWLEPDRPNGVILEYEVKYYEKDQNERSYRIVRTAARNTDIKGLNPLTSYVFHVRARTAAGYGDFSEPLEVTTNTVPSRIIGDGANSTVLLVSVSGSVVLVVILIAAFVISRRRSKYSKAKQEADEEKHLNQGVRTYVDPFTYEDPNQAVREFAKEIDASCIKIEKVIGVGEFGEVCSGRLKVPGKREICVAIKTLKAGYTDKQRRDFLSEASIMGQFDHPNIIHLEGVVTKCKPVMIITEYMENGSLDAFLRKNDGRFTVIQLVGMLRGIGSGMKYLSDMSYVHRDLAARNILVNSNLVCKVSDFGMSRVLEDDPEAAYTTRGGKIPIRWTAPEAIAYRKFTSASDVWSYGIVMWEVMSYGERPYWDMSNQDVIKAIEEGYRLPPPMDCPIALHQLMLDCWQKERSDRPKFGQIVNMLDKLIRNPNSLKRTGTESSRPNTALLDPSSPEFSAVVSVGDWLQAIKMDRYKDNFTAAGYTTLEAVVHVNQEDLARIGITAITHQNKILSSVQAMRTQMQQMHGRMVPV

[8] = molecular target: Serine/threonine-protein kinase SIK2 (Homo sapiens) (UniProt Q9H0K1); test: Inhibition of recombinant human GST-tagged SIK2 assessed as downregulation of SIK2 phosphorylation at Ser358 a 5 uM incubated for 30 mins by Western blotting analysis
Sequence of Serine/threonine-protein kinase SIK2 (Homo sapiens) (Q9H0K1 whole entry, looked up): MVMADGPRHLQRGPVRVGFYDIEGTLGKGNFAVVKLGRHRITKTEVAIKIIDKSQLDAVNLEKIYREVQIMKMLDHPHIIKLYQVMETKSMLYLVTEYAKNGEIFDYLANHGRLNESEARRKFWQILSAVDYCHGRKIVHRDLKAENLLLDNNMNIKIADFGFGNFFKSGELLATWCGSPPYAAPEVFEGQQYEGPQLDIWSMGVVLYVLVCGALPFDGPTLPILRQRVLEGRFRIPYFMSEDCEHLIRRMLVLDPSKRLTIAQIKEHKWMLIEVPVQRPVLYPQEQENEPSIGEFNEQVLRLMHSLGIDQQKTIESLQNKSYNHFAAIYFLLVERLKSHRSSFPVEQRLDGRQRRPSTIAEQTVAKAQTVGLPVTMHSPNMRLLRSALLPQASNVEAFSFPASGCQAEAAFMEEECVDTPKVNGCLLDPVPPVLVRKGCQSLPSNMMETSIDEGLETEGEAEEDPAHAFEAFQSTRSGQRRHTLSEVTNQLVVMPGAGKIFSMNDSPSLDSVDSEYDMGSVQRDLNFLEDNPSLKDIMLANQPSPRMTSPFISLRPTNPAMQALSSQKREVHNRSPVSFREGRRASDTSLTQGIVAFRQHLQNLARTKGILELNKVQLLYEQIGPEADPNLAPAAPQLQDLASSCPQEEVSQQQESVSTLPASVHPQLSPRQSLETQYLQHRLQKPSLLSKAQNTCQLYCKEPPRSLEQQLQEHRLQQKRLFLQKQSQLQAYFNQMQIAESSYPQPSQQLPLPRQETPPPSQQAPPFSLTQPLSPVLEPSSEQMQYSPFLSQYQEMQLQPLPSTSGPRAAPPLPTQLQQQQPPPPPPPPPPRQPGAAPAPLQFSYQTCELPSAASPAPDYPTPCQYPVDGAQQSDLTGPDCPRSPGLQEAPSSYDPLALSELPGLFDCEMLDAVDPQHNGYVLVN

[9] = molecular target: Serine/threonine-protein kinase 26 (Homo sapiens) (UniProt Q9P289); test: Binding affinity to recombinant MST4 (unknown origin) assessed as stabilization by measuring change in melting temperature at 10 uM by SYPRO orange dye based differential scanning fluorimetry assay
Sequence of Serine/threonine-protein kinase 26 (Homo sapiens) (Q9P289 2-416 limits assumed): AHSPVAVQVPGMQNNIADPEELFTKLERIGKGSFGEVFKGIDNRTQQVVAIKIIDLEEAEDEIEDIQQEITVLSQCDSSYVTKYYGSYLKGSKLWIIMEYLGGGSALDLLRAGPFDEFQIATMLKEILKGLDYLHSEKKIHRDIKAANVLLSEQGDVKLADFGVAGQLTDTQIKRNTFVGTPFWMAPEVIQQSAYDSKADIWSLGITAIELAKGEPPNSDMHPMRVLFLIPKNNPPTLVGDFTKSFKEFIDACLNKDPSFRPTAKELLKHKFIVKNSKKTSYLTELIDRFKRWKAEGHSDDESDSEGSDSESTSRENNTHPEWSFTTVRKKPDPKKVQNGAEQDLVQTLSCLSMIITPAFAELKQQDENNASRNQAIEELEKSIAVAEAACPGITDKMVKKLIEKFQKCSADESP

[10] = molecular target: T3, Ephrin type-A receptor 2 (Homo sapiens, UniProt P29317); test: Inhibition of full length NanoLuc fused EPHA2 (unknown origin) transfected in HEK293T cells using NanoBRET NanoGlo substrate incubated for 2 hrs in presence of tracer by NanoBRET assay; type: cell-based
T3 sequence (P29317 whole entry, the tested form may be a part): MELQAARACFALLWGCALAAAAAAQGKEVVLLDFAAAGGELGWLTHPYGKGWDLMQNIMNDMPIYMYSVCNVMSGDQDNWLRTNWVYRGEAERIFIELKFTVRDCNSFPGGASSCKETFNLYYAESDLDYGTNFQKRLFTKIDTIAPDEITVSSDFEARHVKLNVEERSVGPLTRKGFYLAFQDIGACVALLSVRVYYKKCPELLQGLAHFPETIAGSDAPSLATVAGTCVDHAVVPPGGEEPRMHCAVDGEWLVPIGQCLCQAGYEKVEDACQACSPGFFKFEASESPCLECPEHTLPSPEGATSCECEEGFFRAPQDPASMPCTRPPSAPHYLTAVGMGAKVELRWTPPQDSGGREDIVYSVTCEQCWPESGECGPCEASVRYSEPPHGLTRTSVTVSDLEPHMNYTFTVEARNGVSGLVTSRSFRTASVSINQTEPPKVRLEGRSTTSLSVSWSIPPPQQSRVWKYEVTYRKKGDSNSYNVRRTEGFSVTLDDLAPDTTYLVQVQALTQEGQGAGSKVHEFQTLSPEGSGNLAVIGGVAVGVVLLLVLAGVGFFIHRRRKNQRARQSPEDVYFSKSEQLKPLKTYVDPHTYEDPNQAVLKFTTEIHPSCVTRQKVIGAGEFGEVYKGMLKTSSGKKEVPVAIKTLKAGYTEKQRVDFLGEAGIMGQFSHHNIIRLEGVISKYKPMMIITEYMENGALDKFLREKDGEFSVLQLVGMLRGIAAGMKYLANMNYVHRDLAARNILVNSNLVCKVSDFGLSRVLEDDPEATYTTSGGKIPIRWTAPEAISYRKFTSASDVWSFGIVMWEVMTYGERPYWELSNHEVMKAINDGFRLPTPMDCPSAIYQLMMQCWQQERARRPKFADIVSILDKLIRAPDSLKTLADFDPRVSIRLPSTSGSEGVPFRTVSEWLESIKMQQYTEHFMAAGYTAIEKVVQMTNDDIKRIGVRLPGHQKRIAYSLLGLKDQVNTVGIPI

[11] = molecular target: Ephrin type-B receptor 3 (Homo sapiens) (UniProt P54753); test: Binding affinity to recombinant EPHB3 (unknown origin) assessed as stabilization by measuring change in melting temperature at 10 uM by SYPRO orange dye based differential scanning fluorimetry assay
[12] = molecular target: T2, Ephrin type-A receptor 4; test: Inhibition of full length NanoLuc fused EPHA4 (unknown origin) transfected in HEK293T cells using NanoBRET NanoGlo substrate incubated for 2 hrs in presence of tracer by NanoBRET assay; type: cell-based
[13] = molecular target: T4, Mitogen-activated protein kinase 8 (Homo sapiens, UniProt P45983); test: Inhibition of full length NanoLuc fused JNK1 (unknown origin) transfected in HEK293T cells using NanoBRET NanoGlo substrate incubated for 2 hrs in presence of tracer by NanoBRET assay; type: cell-based
T4 sequence (P45983 whole entry, the tested form may be a part): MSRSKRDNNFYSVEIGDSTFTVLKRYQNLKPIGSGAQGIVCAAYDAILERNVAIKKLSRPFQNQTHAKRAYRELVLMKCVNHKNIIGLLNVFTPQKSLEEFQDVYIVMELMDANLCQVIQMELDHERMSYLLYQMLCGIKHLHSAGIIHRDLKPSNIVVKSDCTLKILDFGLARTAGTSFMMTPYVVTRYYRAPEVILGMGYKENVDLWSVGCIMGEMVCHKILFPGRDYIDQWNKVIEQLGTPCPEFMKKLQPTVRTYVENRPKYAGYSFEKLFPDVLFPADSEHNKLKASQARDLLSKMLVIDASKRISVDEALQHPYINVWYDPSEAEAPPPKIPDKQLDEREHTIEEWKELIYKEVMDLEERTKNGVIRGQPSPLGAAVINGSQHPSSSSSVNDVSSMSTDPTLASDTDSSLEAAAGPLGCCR

[14] = molecular target: T3, Ephrin type-A receptor 2; test: Binding affinity to recombinant EPHA2 (unknown origin) assessed as stabilization by measuring change in melting temperature at 10 uM by SYPRO orange dye based differential scanning fluorimetry assay
[15] = molecular target: Serine/threonine-protein kinase SIK2 (Homo sapiens) (UniProt Q9H0K1); test: Inhibition of SIK2 in human SK-OV-3 cells assessed as upregulation of PLK expression level at 5 uM incubated for 48 hrs by Western blotting analysis; type: cell-based
[16] = molecular target: Serine/threonine-protein kinase PAK 1 (Homo sapiens) (UniProt Q13153); test: Binding affinity to recombinant PAK1 (unknown origin) assessed as stabilization by measuring change in melting temperature at 10 uM by SYPRO orange dye based differential scanning fluorimetry assay
Sequence of Serine/threonine-protein kinase PAK 1 (Homo sapiens) (Q13153 whole entry): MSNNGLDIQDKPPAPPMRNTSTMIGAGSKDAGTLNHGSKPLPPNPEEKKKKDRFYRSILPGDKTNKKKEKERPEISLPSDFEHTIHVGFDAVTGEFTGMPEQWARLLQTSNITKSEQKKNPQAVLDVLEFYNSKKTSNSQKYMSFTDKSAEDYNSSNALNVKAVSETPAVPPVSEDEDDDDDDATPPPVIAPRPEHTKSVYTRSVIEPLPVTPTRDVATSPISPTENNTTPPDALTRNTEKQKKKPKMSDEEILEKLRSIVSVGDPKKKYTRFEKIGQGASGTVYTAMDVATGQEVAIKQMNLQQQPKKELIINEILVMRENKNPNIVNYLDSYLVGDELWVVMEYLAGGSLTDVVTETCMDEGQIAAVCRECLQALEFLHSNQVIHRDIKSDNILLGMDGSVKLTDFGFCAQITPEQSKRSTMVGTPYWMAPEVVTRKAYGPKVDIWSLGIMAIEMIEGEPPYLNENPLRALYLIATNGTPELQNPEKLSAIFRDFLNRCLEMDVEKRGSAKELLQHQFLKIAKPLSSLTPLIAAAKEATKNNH

[17] = system: SK-OV-3; test: Induction of cell cycle arrest in human SK-OV-3 cells assessed as accumulation of cells at S phase at 5 uM incubated for 24 hrs by flow cytometry (reference value: 32%); type: functional
[18] = system: HCT-116; test: Cytotoxicity against human HCT-116 cells assessed as appearance of pyknosis nuclei at 1 uM incubated for 80 hrs by Hoechst-33342 staining high-content imaging analysis; type: toxicity, cell-based; conditions: hct-116, 80 h
[19] = molecular target: T4, Mitogen-activated protein kinase 8; test: Binding affinity to recombinant JNK1 (unknown origin) assessed as stabilization by measuring change in melting temperature at 10 uM by SYPRO orange dye based differential scanning fluorimetry assay
[20] = system: HCT-116; test: Cytotoxicity against human HCT-116 cells assessed as appearance of pyknosis nuclei at 10 uM incubated for 80 hrs by Hoechst-33342 staining high-content imaging analysis; type: toxicity, cell-based; conditions: hct-116, 80 h
[21] = molecular target: Serine/threonine-protein kinase SIK2 (Homo sapiens) (UniProt Q9H0K1); test: Inhibition of recombinant human GST-tagged SIK2 assessed as downregulation of SIK2 phosphorylation at Ser358 incubated for 30 mins by Western blotting analysis
[22] = molecular target: Ephrin type-B receptor 1 (Homo sapiens) (UniProt P54762); test: Binding affinity to recombinant EPHB1 (unknown origin) assessed as stabilization by measuring change in melting temperature at 10 uM by SYPRO orange dye based differential scanning fluorimetry assay
[23] = molecular target: Ephrin type-B receptor 3 (Homo sapiens, UniProt P54753); test: Inhibition of full length NanoLuc fused EPHB3 (unknown origin) transfected in HEK293T cells using NanoBRET NanoGlo substrate incubated for 2 hrs in presence of tracer by NanoBRET assay; type: cell-based
[24] = molecular target: Serine/threonine-protein kinase SIK2 (Homo sapiens) (UniProt Q9H0K1); test: Inhibition of SIK2 in human SK-OV-3 cells assessed as decrease in centrosome dissociation in G2 phase at 5 uM incubated for 48 hrs by immunofluorescence assay; type: cell-based
[25] = system: SK-OV-3; test: Induction of cell cycle arrest in human SK-OV-3 cells assessed as accumulation of cells at G1 phase at 5 uM incubated for 24 hrs by flow cytometry (reference value: 34%); type: functional

IC50 [1]: 2.1 µM
ΔTm [3]: 0.9 °C
ΔTm [4]: 1.5 °C
IC50 [6]: 28.1 µM
ΔTm [7]: 5.5 °C
inhibition [8]: Active
ΔTm [9]: 0.9 °C
IC50 [10]: 2.1 µM
ΔTm [11]: 5.6 °C
IC50 [12]: 1.6 µM
IC50 [13]: 23.2 µM
ΔTm [14]: 8.9 °C
inhibition [15]: Active
ΔTm [16]: 0 °C
ΔTm [19]: 7.3 °C
inhibition [21]: Dose-Dependent Effect
ΔTm [22]: 7 °C
IC50 [23]: 18.3 µM
inhibition [24]: Active
Structure (SMILES): CNc1ncc2cc(-c3cc(F)ccc3F)c(=O)n(CCCCN)c2n1
Activity [2]: 69%
Activity [5]: Toxic
Activity [17]: 19%
Activity [18]: Toxic
Activity [20]: 30%
Activity [25]: 50%
